Data on 22 compounds can be found in US8242275B2, “Bicyclic pyrazole compounds as antibacterial agents” (Janssen Pharmaceutica NV, priority 2005, dated 2012).

Holding throughout (assay): In vitro antibacterial activity (MIC assay), broth microdilution
Holding throughout (assay type): cell-based

In experiment [1] the test system is S. aureus ATCC13709. To be noted: Staphylococcus aureus, ATCC13709; read-out: S. aureus ATCC13709 MIC. On the procedure: (§1) Minimal inhibitory concentration (MIC) has been an indicator of in vitro antibacterial activity widely used in the art. The in vitro antibacterial activity of the compounds was determined by the broth microdilution method described by the National Committee for Clinical Laboratory Standards (NCCLS) in the NCCLS Document M7-A5, Vol. 20, No. 2, “Methods for Dilution Antimicrobial Susceptibility Test for Bacteria that Grow Aerobically—Fifth Edition”, which is incorporated herein by reference.
(§2) In this method, an aliquot of test compound from an 11-point series of 2-fold serial dilutions of compounds in 100% DMSO was added to wells in microdilution plates. The test organisms were prepared by adjusting the turbidity of actively growing broth cultures so that the final concentration of test organism after addition to wells with or without compounds was approximately 5×10^5 CFU/mL.
(§3) Following inoculation of the microdilution plates, the plates were incubated at 35° C. for 16-24 h and then scored for bacterial growth. […] The amount of growth in the wells containing the test compound was compared with the amount of growth in the growth-control wells (no test compound used) in each plate, and with the amount of growth in the wells containing control compounds (such as ciprofloxacin). Compounds of the present invention were tested against several bacterial strains. The MIC values (in μg/mL) are presented in Table 1 for Gram-negative (E. coli KL-16 (GSC strain 4245); data marked as (*) was obtained with E. coli ATCC25922) and Gram-positive bacteria (S. aureus ATCC13709; S. pneumoniae ATCC49619).

Experiment [2] has as its system E. coli KL-16 (GSC strain 4245). Conditions: Escherichia coli. On the procedure: as §1, §2, §3
For experiment [3], the system named is S. pneumoniae ATCC49619. To be noted: Streptococcus pneumoniae, ATCC49619; read-out: S. pneumoniae ATCC49619 MIC. On the procedure: as §1, §2, §3

Converted amounts (≈) assume the structure as drawn.

For the compound `COc1ccc2nccc(-n3cc4c(n3)CCC(NCc3ccc(N(C)C)cc3)C4)c2n1` (stereo not drawn) [Example 39, (4-Dimethylamino-benzyl)-[2-(6-methoxy-[1,5]naphthyridin-4-yl)-4,5,6,7-tetrahydro-2H-indazol-5-yl]-amine], the values for the MIC in experiment [1], in experiment [2] and in experiment [3] were 0.5 µg/mL (≈ 1.17 µM), above 128 µg/mL and 1 µg/mL (≈ 2.33 µM), respectively.

As to `COc1ccc2nccc(-n3cc4c(n3)CCC(NC(=O)/C=C/c3ccccc3)C4)c2n1` (stereo not drawn) [Example 10, N-[2-(6-Methoxy-[1,5]naphthyridin-4-yl)-4,5,6,7-tetrahydro-2H-indazol-5-yl]-3-phenyl-acrylamide], the MIC (commonly the lowest concentration that inhibits growth of the organism) was 0.25 µg/mL (≈ 0.588 µM) in experiment [1], above 128 µg/mL in experiment [2] and 2 µg/mL (≈ 4.7 µM) in experiment [3].

For the compound `COc1ccc2nccc(-n3cc4c(n3)CCC(NCC(=O)Nc3ccccc3)C4)c2n1` (stereo not drawn) [Example 59, 2-[2-(6-Methoxy-[1,5]naphthyridin-4-yl)-4,5,6,7-tetrahydro-2H-indazol-5-ylamino]-N-phenyl-acetamide], the MIC was 1 µg/mL (≈ 2.33 µM) in experiment [1], 128 µg/mL (≈ 299 µM) in experiment [2] and 8 µg/mL (≈ 18.7 µM) in experiment [3].

For the compound `COc1ccc2nccc(-n3ncc4c3CCC(NC(=O)c3cc5c(cc3Br)SCC(=O)N5)C4)c2c1` (stereo not drawn) [Example 98, 7-Bromo-3-oxo-3,4-dihydro-2H-benzo[1,4]thiazine-6-carboxylic acid [1-(6-methoxy-quinolin-4-yl)-4,5,6,7-tetrahydro-1H-indazol-5-yl]-amide], the MIC was 16 µg/mL (≈ 28.3 µM) in experiment [1], above 128 µg/mL in experiment [2] and 64 µg/mL (≈ 113 µM) in experiment [3].

For `COc1ccc2nccc(-n3cc4c(n3)CCC(NC(=O)/C=C/c3ccccc3)C4)c2c1` (stereo not drawn) [Example 29, N-[2-(6-Methoxy-quinolin-4-yl)-4,5,6,7-tetrahydro-2H-indazol-5-yl]-3-phenyl-acrylamide], the values for the MIC in experiment [1], in experiment [2] and in experiment [3] were 1 µg/mL (≈ 2.36 µM), above 128 µg/mL and 4 µg/mL (≈ 9.42 µM), respectively.

With `COc1ccc2nccc(-n3cc4c(n3)CCC(NC(=O)c3cc(F)c(Cl)cc3Cl)C4)c2n1` (stereo not drawn) [Example 125, 2,4-Dichloro-5-fluoro-N-[2-(6-methoxy-[1,5]naphthyridin-4-yl)-4,5,6,7-tetrahydro-2H-indazol-5-yl]-benzamide], the minimum inhibitory concentration (MIC) in experiment [1] was 0.25 µg/mL (≈ 0.514 µM); in experiment [2], above 128 µg/mL; in experiment [3], 8 µg/mL (≈ 16.4 µM).

As to `COc1ccc2nccc(-n3cc4c(n3)CCC(NC(=O)c3ccc(OC)c([N+](=O)[O-])c3)C4)c2n1` (stereo not drawn) [Example 119, 4-Methoxy-N-[2-(6-methoxy-[1,5]naphthyridin-4-yl)-4,5,6,7-tetrahydro-2H-indazol-5-yl]-3-nitro-benzamide], the values for the MIC in experiment [1], in experiment [2] and in experiment [3] were 4 µg/mL (≈ 8.43 µM), above 128 µg/mL and 8 µg/mL (≈ 16.9 µM), respectively.

On to `COc1ccc2nccc(-n3cc4c(n3)CCC(NCC(=O)Nc3cccc(Cl)c3)C4)c2n1` (stereo not drawn) [Example 123, N-(3-Chloro-phenyl)-2-[2-(6-methoxy-[1,5]naphthyridin-4-yl)-4,5,6,7-tetrahydro-2H-indazol-5-ylamino]-acetamide], for which the minimal inhibitory concentration (MIC) in experiment [1] is 1 µg/mL (≈ 2.16 µM); in experiment [2], above 128 µg/mL; in experiment [3], above 128 µg/mL.

For the compound `COc1ccc2nccc(-n3cc4c(n3)CCC(NC(=O)c3cc(NC(C)=O)ccc3Br)C4)c2n1` (stereo not drawn) [Example 124, 5-Acetylamino-2-bromo-N-[2-(6-methoxy-[1,5]naphthyridin-4-yl)-4,5,6,7-tetrahydro-2H-indazol-5-yl]-benzamide], the MIC in experiment [1] is 4 µg/mL (≈ 7.47 µM); in experiment [2] it was above 128 µg/mL; in experiment [3] it was above 128 µg/mL.

Regarding `COc1ccc2nccc(-n3cc4c(n3)CCC(NCc3ccc(N(C)C)c(C#N)c3F)C4)c2c1` (stereo not drawn) [Example 126, 6-Dimethylamino-2-fluoro-3-{[2-(6-methoxy-quinolin-4-yl)-4,5,6,7-tetrahydro-2H-indazol-5-ylamino]-methyl}-benzonitrile], the minimal inhibitory concentration (MIC) is 1 µg/mL (≈ 2.13 µM) in experiment [1], above 128 µg/mL in experiment [2] and 2 µg/mL (≈ 4.25 µM) in experiment [3].

On to `COc1ccc2nccc(-n3cc4c(n3)CCC(NC(=O)c3cc5cc(Br)ccc5[nH]3)C4)c2c1` (stereo not drawn) [Example 76, 5-Bromo-1H-indole-2-carboxylic acid [2-(6-methoxy-quinolin-4-yl)-4,5,6,7-tetrahydro-2H-indazol-5-yl]-amide], for which the figures for the MIC in experiment [1], in experiment [2] and in experiment [3] were 2 µg/mL (≈ 3.87 µM), above 128 µg/mL and above 128 µg/mL, respectively.

For `COc1ccc2nccc(-n3ncc4c3CCC(NC(=O)c3cc5c(cc3C(F)(F)F)SCC(=O)N5)C4)c2c1` (stereo not drawn) [Example 99, 3-Oxo-7-trifluoromethyl-3,4-dihydro-2H-benzo[1,4]thiazine-6-carboxylic acid [1-(6-methoxy-quinolin-4-yl)-4,5,6,7-tetrahydro-1H-indazol-5-yl]-amide], the MIC in experiment [1] was 2 µg/mL (≈ 3.61 µM); in experiment [2] it was above 128 µg/mL; in experiment [3], above 128 µg/mL.

`COc1ccc2nccc(-n3cc4c(n3)CCC(NCC(=O)Nc3ccc(Cl)c(Cl)c3)C4)c2c1` (stereo not drawn) [Example 62, N-(3,4-Dichloro-phenyl)-2-[2-(6-methoxy-quinolin-4-yl)-4,5,6,7-tetrahydro-2H-indazol-5-ylamino]-acetamide]: the MIC in experiment [1] was 1 µg/mL (≈ 2.01 µM); in experiment [2], above 128 µg/mL; in experiment [3] it was 16 µg/mL (≈ 32.2 µM).

In the case of `COc1ccc2nccc(-n3cc4c(n3)CCC(NCC(=O)c3ccc5c(c3)NC(=O)CO5)C4)c2c1` (stereo not drawn) [Example 63, 6-{2-[2-(6-Methoxy-quinolin-4-yl)-4,5,6,7-tetrahydro-2H-indazol-5-ylamino]-acetyl}-4H-benzo[1,4]oxazin-3-one], the MIC in experiment [1] was determined as 0.1 µg/mL (≈ 0.207 µM); in experiment [2], 6 µg/mL (≈ 12.4 µM); in experiment [3] it was 0.8 µg/mL (≈ 1.65 µM).

Consider `COc1ccc2nccc(-n3cc4c(n3)CC(NC(=O)c3ccc5c(c3)NC(=O)CS5)CC4)c2c1` (stereo not drawn) [Example 27, 3-Oxo-3,4-dihydro-2H-benzo[1,4]thiazine-6-carboxylic acid [2-(6-methoxy-quinolin-4-yl)-4,5,6,7-tetrahydro-2H-indazol-6-yl]-amide], for which the MIC in experiment [1] is 0.125 µg/mL (≈ 0.257 µM); in experiment [2], 4 µg/mL (≈ 8.24 µM); in experiment [3] it was 4 µg/mL (≈ 8.24 µM).

Regarding `COc1ccc2nccc(-n3cc4c(n3)CCC(NC(=O)c3ccc5c(c3)OCCCO5)C4)c2n1` (stereo not drawn) [Example 3, 3,4-Dihydro-2H-benzo[b][1,4]dioxepine-7-carboxylic acid [2-(6-methoxy-[1,5]naphthyridin-4-yl)-4,5,6,7-tetrahydro-2H-indazol-5-yl]-amide], the minimal inhibitory concentration (MIC) is 1 µg/mL (≈ 2.12 µM) in experiment [1], above 128 µg/mL in experiment [2] and 4 µg/mL (≈ 8.48 µM) in experiment [3].

`COc1ccc2nccc(-n3cc4c(n3)CCC(NC(=O)c3ccc5c(c3)OCCO5)C4)c2c1` (stereo not drawn) [Example 16, 2,3-Dihydro-benzo[1,4]dioxine-6-carboxylic acid [2-(6-methoxy-quinolin-4-yl)-4,5,6,7-tetrahydro-2H-indazol-5-yl]-amide]: the results for the MIC in experiment [1], in experiment [2] and in experiment [3] were 2 µg/mL (≈ 4.38 µM), above 128 µg/mL and 8 µg/mL (≈ 17.5 µM), respectively.

With `Cc1cc(-n2cc3c(n2)CCC(NC(=O)c2ccc4c(c2)NC(=O)CS4)C3)c2cc(F)ccc2n1` (stereo not drawn) [Example 82, 3-Oxo-3,4-dihydro-2H-benzo[1,4]thiazine-6-carboxylic acid [2-(6-fluoro-2-methyl-quinolin-4-yl)-4,5,6,7-tetrahydro-2H-indazol-5-yl]-amide], the figures for the MIC in experiment [1], in experiment [2] and in experiment [3] were 8 µg/mL (≈ 16.4 µM), above 128 µg/mL and above 128 µg/mL, respectively.

In the case of `COc1ccc2nccc(-n3cc4c(n3)CCC(NC(=O)c3cc(F)c5c(c3)OCCO5)C4)c2n1` (stereo not drawn) [Example 127, 8-Fluoro-2,3-dihydro-benzo[1,4]dioxine-6-carboxylic acid [2-(6-methoxy-[1,5]naphthyridin-4-yl)-4,5,6,7-tetrahydro-2H-indazol-5-yl]-amide], the results for the MIC in experiment [1], in experiment [2] and in experiment [3] were 0.5 µg/mL (≈ 1.05 µM), above 128 µg/mL and 8 µg/mL (≈ 16.8 µM), respectively.

As for `COc1ccc2nccc(-n3cc4c(n3)CCC(NC(=O)c3nc5ccccc5[nH]3)C4)c2c1` (stereo not drawn) [Example 71, 1H-Benzoimidazole-2-carboxylic acid [2-(6-methoxy-quinolin-4-yl)-4,5,6,7-tetrahydro-2H-indazol-5-yl]-amide], the MIC is 2 µg/mL (≈ 4.56 µM) in experiment [1], above 128 µg/mL in experiment [2] and 8 µg/mL (≈ 18.2 µM) in experiment [3].

As to `COc1ccc2nccc(-n3cc4c(n3)CCC(NCc3cc(OC)c(OC)cc3F)C4)c2n1` (stereo not drawn) [Example 88, (2-Fluoro-4,5-dimethoxy-benzyl)-[2-(6-methoxy-[1,5]naphthyridin-4-yl)-4,5,6,7-tetrahydro-2H-indazol-5-yl]-amine], the results for the minimal inhibitory concentration (MIC) in experiment [1], in experiment [2] and in experiment [3] were 4 µg/mL (≈ 8.63 µM), above 128 µg/mL and 8 µg/mL (≈ 17.3 µM), respectively.

Regarding `COc1ccc2nccc(-n3cc4c(n3)CCC(NC(=O)c3ccc(C)c([N+](=O)[O-])c3)C4)c2n1` (stereo not drawn) [Example 110, N-[2-(6-Methoxy-[1,5]naphthyridin-4-yl)-4,5,6,7-tetrahydro-2H-indazol-5-yl]-4-methyl-3-nitro-benzamide], the values for the MIC in experiment [1], in experiment [2] and in experiment [3] were 0.25 µg/mL (≈ 0.545 µM), above 128 µg/mL and 8 µg/mL (≈ 17.4 µM), respectively.
